The record followed here is patent US10988477B2 (Merck Patent GmbH, priority 2018, dated 2021).

Read-outs that look alike come from different tables or passages of the source. Bounds are passed on as bounds.

One assay addresses GCN2 kinase (Homo sapiens, UniProt Q9P2K8). In words: GCN2 enzyme inhibition assay (Transcreener ADP2 fluorescence polarization). Format: biochemical. As to conditions: 280 μM ATP. The method in brief: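 Human GCN2 (4 nM) preincubated 10 min with compound (0–8 μM) and 200 μM (RS)7 peptide in Tris-HCl pH 7.5, NaCl, MgCl2, DTT. Reaction started with 280 μM ATP, run 1 h at 25 °C. ADP detected by Transcreener fluorescence polarization. IC50 and Ki(app) fitted by tight-binding algorithm.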
For orientation: In fluorescence polarisation assays a small probe gives low polarisation when free and higher when bound to something large.

The target in assay [1] is intracellular GCN2 (phosphorylation of the GCN2 substrate eIF2α) (Homo sapiens, UniProt Q9P2K8). The assay is described as follows: GCN2 cellular inhibition assay (AlphaScreen SureFire P-eIF2α Ser51, borrelidin-treated U2OS cells). Format: cell-based. The method in brief:
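Compound effect on GCN2 is gauged by eIF2α Ser51 phosphorylation in borrelidin-challenged U2OS cells (10 μM, 1 h). Top compound level is 40 μM final.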
(In general: Alpha assays give light when donor and acceptor beads are brought close together.)

Where [2] appears, read: Enzyme activity for compounds of Formula IV, Ki(app), 25° C.
The mark [3] stands for this setting: compounds of Formula IV, biomarker assay, phosphorylated eIF2α Ser51 in borrelidin-treated U2OS cells.
[4] abbreviates: compounds of Formula II, 4 nM GCN2 kinase.
[5] abbreviates: compounds of Formula II, biomarker assay, phosphorylated eIF2α Ser51 in borrelidin-treated U2OS cells.

Chain of GCN2 kinase (Q9P2K8 whole entry): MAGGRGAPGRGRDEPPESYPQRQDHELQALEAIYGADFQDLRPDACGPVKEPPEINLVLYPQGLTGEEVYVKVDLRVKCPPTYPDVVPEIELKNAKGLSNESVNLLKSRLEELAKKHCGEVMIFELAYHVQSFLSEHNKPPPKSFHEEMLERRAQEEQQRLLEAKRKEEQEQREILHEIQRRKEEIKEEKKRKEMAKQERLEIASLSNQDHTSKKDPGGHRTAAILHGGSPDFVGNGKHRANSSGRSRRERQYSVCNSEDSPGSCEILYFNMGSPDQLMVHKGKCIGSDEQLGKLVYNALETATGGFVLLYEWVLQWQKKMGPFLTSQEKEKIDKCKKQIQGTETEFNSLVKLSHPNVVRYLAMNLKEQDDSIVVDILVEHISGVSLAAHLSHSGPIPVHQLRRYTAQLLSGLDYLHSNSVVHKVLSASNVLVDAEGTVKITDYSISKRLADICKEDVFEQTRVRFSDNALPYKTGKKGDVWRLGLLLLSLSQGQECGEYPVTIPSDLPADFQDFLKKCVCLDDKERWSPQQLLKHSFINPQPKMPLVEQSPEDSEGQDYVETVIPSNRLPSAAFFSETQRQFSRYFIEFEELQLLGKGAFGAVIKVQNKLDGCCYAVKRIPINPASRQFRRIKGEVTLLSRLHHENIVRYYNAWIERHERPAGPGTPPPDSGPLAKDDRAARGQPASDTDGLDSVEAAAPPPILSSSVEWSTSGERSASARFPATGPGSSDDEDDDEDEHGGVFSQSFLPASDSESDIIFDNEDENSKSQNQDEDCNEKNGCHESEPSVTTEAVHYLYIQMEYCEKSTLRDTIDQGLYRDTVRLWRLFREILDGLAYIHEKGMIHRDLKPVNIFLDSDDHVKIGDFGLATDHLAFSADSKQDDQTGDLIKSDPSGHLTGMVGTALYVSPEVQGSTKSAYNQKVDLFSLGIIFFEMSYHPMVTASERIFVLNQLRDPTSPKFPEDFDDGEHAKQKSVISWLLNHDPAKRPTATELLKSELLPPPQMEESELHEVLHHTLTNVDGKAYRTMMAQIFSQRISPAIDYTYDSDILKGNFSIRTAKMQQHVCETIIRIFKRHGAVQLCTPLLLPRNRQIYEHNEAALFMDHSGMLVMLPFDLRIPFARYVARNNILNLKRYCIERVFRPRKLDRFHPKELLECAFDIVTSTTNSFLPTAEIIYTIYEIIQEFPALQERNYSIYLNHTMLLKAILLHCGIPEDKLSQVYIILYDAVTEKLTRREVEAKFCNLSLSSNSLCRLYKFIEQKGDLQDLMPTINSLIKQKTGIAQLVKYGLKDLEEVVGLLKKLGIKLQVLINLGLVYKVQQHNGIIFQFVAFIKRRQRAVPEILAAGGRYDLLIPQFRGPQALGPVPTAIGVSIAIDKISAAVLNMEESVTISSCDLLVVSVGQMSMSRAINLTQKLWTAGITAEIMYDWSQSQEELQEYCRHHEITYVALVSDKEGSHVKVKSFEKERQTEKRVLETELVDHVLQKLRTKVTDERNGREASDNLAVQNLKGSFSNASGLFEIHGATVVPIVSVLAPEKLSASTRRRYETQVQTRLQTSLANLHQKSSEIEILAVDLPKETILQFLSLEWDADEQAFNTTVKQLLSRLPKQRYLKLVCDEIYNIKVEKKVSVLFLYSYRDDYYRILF
Chain of intracellular GCN2 (phosphorylation of the GCN2 substrate eIF2α) (Q9P2K8 whole entry): as above

As a reminder, the IC50 is the concentration needed to halve the response being measured. Consider `FC(F)(F)c1cn2c(-c3nccc(N4CC(c5cn[nH]c5)NC(C(F)(F)F)C4)n3)cnc2cn1` (stereo not drawn) [IV-558, 3-(4-(3-(1H-Pyrazol-4-yl)-5-(trifluoromethyl)piperazin-1-yl)pyrimidin-2-yl)-6-(trifluoromethyl)imidazo[1,2-a]pyrazine], for which, on GCN2 kinase (setting [2]), the Ki lay in the range of 0.01 to 0.1 µM. In addition, in assay [1] (setting [3]), the IC50 is > 5 µM.
Take `CS(=O)(=O)NC[C@H]1CN(c2cc(-c3cnn4cc(F)c(C(F)F)nc34)ncn2)CCO1` [III-5, N-[[(2R)-4-[6-[5-(Difluoromethyl)-6-fluoro-pyrazolo[1,5-a]pyrimidin-3-yl]pyrimidin-4-yl]morpholin-2-yl]methyl]methanesulfonamide]: the Ki on GCN2 kinase (compounds of Formula III, 4 nM GCN2 kinase) was 0.01 to 1 µM. In addition, the IC50 in assay [1] (compounds of Formula III, U2OS cells, 10 μM borrelidin, 1 h, read-out: GCN2 Biomarker (IC50)) is > 5 µM.
For the compound `C[C@H]1CN(c2ccnc(-c3cnc4cnc(C(F)(F)F)cn34)n2)C[C@@H](c2c[nH]cn2)N1` (racemic) [IV-379, Cis-3-(4-(3-(1H-Imidazol-4-yl)-5-methylpiperazin-1-yl)pyrimidin-2-yl)-6-(trifluoromethyl)imidazo[1,2-a]pyrazine], the Ki at GCN2 kinase (setting [2]) was < 0.01 µM. In assay [1] (setting [3]), this compound showed an IC50 of 0.5 to 5 µM.
Taken in the same sequence, the figures for `CC1CN(c2cc(F)cc(-c3cnc4cnc(C(F)(F)F)cn34)n2)C(C)C(c2cn[nH]c2)N1` (stereo not drawn) [IV-690, 3-(6-(2,5-Dimethyl-3-(1H-pyrazol-4-yl)piperazin-1-yl)-4-fluoropyridin-2-yl)-6-(trifluoromethyl)imidazo[1,2-a]pyrazine] were < 0.01 µM and 0.5 to 5 µM.
Consider `CC1C(CNS(C)(=O)=O)OC(C)(C)CN1c1cc(-c2cnc3ccc(C(F)F)nn23)ncn1` (single isomer, unassigned) [II-489, N-((4-(6-(6-(Difluoromethyl)imidazo[1,2-b]pyridazin-3-yl)pyrimidin-4-yl)-3,6,6-trimethylmorpholin-2-yl)methyl)methanesulfonamide], for which, at GCN2 kinase (setting [4]), the Ki is > 1 µM. Besides, in assay [1] (setting [5]), the IC50 is > 5 µM.
For `CC1CN(c2ccnc(-c3cnc4cnc(Br)cn34)n2)C(C)C(c2cn[nH]c2)N1` (single isomer, unassigned) [IV-288, 6-Bromo-3-(4-(2,5-dimethyl-3-(1H-pyrazol-4-yl)piperazin-1-yl)pyrimidin-2-yl)imidazo[1,2-a]pyrazine], the Ki on GCN2 kinase (setting [2]) is < 0.01 µM. Moreover, the IC50 in assay [1] (setting [3]) is < 0.5 µM.
Taken in the same sequence, the figures for `CS(=N)(=O)CC1CCCN(c2ccnc(-c3cnc4cnc(C(F)(F)F)cn34)n2)C1` (stereo not drawn) [IV-34, Imino(methyl)((1-(2-(6-(trifluoromethyl)imidazo[1,2-a]pyrazin-3-yl)pyrimidin-4-yl)piperidin-3-yl)methyl)-λ^6-sulfanone] were 0.1 to 1 µM and > 5 µM.
Taken in the same sequence, the figures for `FC(F)c1cn2c(-c3nccc(N4CCOCC4)n3)cnc2cn1` [IV-104, 4-(2-(6-(Difluoromethyl)imidazo[1,2-a]pyrazin-3-yl)pyrimidin-4-yl)morpholine] were 0.1 to 1 µM and > 5 µM.
For `FC(F)c1cn2c(-c3nccc(N4CCCC5CC54)n3)cnc2cn1` (stereo not drawn) [IV-135, 3-(4-(2-Azabicyclo[4.1.0]heptan-2-yl)pyrimidin-2-yl)-6-(difluoromethyl)imidazo[1,2-a]pyrazine] the same measures were 0.1 to 1 µM and > 5 µM.
Consider `CC1(C)CN(c2ccnc(-c3cnc4cnc(Br)cn34)n2)CC(c2cn[nH]c2)N1` (stereo not drawn) [IV-354, 6-Bromo-3-(4-(3,3-dimethyl-5-(1H-pyrazol-4-yl)piperazin-1-yl)pyrimidin-2-yl)imidazo[1,2-a]pyrazine], for which, at GCN2 kinase (setting [2]), the Ki was in the range of 0.01 to 0.1 µM. In addition, in assay [1] (setting [3]), the IC50 is > 5 µM.
With `CC1CN(c2ccnc(-c3cnc4cnc(C(F)(F)F)cn34)n2)C(C)C(c2c[nH]c(C(F)(F)F)n2)N1` (single isomer, unassigned) [IV-673, 3-(4-(2,5-Dimethyl-3-(2-(trifluoromethyl)-1H-imidazol-4-yl)piperazin-1-yl)pyrimidin-2-yl)-6-(trifluoromethyl)imidazo[1,2-a]pyrazine], on GCN2 kinase (setting [2]), the Ki is < 0.01 µM. The compound further returned an IC50 in assay [1] (setting [3]) of 0.5 to 5 µM.
For `OCC1CCN(c2ccnc(-c3cnc4cnc(C(F)(F)F)cn34)n2)CC1` [IV-443, (1-(2-(6-(Trifluoromethyl)imidazo[1,2-a]pyrazin-3-yl)pyrimidin-4-yl)piperidin-4-yl)methanol] the same measures were 0.1 to 1 µM and > 5 µM.
On GCN2 kinase (setting [2]), `C[C@H]1CCCCN1c1ccnc(-c2cnc3cnc(C(F)F)cn23)n1` [IV-85, (S)-6-(Difluoromethyl)-3-(4-(2-methylpiperidin-1-yl)pyrimidin-2-yl)imidazo[1,2-a]pyrazine] registered a Ki of 0.1 to 1 µM. Also, in assay [1] (setting [3]), the IC50 was > 5 µM.
In turn, `CC1CN(c2cc(-c3cnc4ccc(C(F)(F)F)nn34)ncn2)C(C)C(c2cn[nH]c2)N1` (stereo not drawn) [II-704, 3-(6-(2,5-Dimethyl-3-(1H-pyrazol-4-yl)piperazin-1-yl)pyrimidin-4-yl)-6-(trifluoromethyl)imidazo[1,2-b]pyridazine] had a Ki on GCN2 kinase (setting [4]) of 0.01 to 1 µM. For the same compound, the IC50 in assay [1] (setting [5]) was > 5 µM.
Taken in the same sequence, the figures for `CS(=O)(=O)N1CCCC(c2cc(-c3cnc4ccc(C(F)F)nn34)ncn2)CC1` (single isomer, unassigned) [II-276, 6-(Difluoromethyl)-3-(6-(1-(methylsulfonyl)azepan-4-yl)pyrimidin-4-yl)imidazo[1,2-b]pyridazine] were 0.01 to 1 µM and 0.5 to 5 µM.
For the compound `CS(=O)(=O)N1CC2OCCN(c3cc(-c4cnc5ccc(C(F)F)nn45)ncn3)C2C1` (stereo not drawn) [II-319, 4-(6-(6-(Difluoromethyl)imidazo[1,2-b]pyridazin-3-yl)pyrimidin-4-yl)-6-(methylsulfonyl)octahydropyrrolo[3,4-b][1,4]oxazine], on GCN2 kinase (setting [4]), the Ki was 0.01 to 1 µM. Also, the IC50 in assay [1] (setting [5]) is > 5 µM.
For `OC[C@H]1CCCN(c2cc(-c3cnc4ccc(C(F)(F)F)nn34)ncn2)C1` [II-516, (S)-(1-(6-(6-(Trifluoromethyl)imidazo[1,2-b]pyridazin-3-yl)pyrimidin-4-yl)piperidin-3-yl)methanol] the same measures were 0.01 to 1 µM and 0.5 to 5 µM.
With `O=C1OC2(CC2)[C@@H]2CN(c3cc(-c4cnc5ccc(C(F)(F)F)nn45)ccn3)CCN12` [II-226, (S)-7′-(4-(6-(Trifluoromethyl)imidazo[1,2-b]pyridazin-3-yl)pyridin-2-yl)tetrahydrospiro[cyclopropane-1,1′-oxazolo[3,4-a]pyrazin]-3′(5′H)-one], the Ki at GCN2 kinase (setting [4]) fell in the range of 0.01 to 1 µM. Besides, the IC50 in assay [1] (setting [5]) fell in the range of 0.5 to 5 µM.
Taken in the same sequence, the figures for `O=C1NCCC12CCCN(c1cc(-c3cnc4ccc(C(F)F)nn34)ncn1)C2` (stereo not drawn) [II-51, 7-(6-(6-(Difluoromethyl)imidazo[1,2-b]pyridazin-3-yl)pyrimidin-4-yl)-2,7-diazaspiro[4.5]decan-1-one] were 0.01 to 1 µM and 0.5 to 5 µM.
For `OC[C@H]1CCCCN1c1ccnc(-c2cnc3cnc(C(F)F)cn23)n1` [IV-136, (R)-(1-(2-(6-(Difluoromethyl)imidazo[1,2-a]pyrazin-3-yl)pyrimidin-4-yl)piperidin-2-yl)methanol], the Ki at GCN2 kinase (setting [2]) is 0.1 to 1 µM. The IC50 in assay [1] (setting [3]) was > 5 µM.
For `CC1CCCN(c2ccnc(-c3cnc4cnc(C(F)F)cn34)n2)C1C` (stereo not drawn) [IV-134, 6-(Difluoromethyl)-3-(4-(2,3-dimethylpiperidin-1-yl)pyrimidin-2-yl)imidazo[1,2-a]pyrazine] the same measures were 0.1 to 1 µM and > 5 µM.
On to `CS(=O)(=O)N1CC2CCN(c3cc(-c4cnc5ccc(C(F)F)nn45)ncn3)C2C1` (stereo not drawn) [II-282, 6-(Difluoromethyl)-3-(6-(5-(methylsulfonyl)hexahydropyrrolo[3,4-b]pyrrol-1 (2H)-yl)pyrimidin-4-yl)imidazo[1,2-b]pyridazine], for which, at GCN2 kinase (setting [4]), the Ki fell in the range of 0.01 to 1 µM. In assay [1] (setting [5]), the IC50 was > 5 µM.
Taken in the same sequence, the figures for `CC1C(CS(N)(=O)=O)CCCN1c1cc(-c2cnc3ccc(C(F)F)nn23)ncn1` (stereo not drawn) [II-424, (1-(6-(6-(Difluoromethyl)imidazo[1,2-b]pyridazin-3-yl)pyrimidin-4-yl)-2-methylpiperidin-3-yl)methanesulfonamide] were < 0.01 µM and < 0.5 µM.
As for `FC(F)c1cn2c(-c3nccc(N4CC5CCC(C4)O5)n3)cnc2cn1` [IV-91, 3-(2-(6-(Difluoromethyl)imidazo[1,2-a]pyrazin-3-yl)pyrimidin-4-yl)-8-oxa-3-azabicyclo[3.2.1]octane], on GCN2 kinase (setting [2]), the Ki was in the range of 0.1 to 1 µM. Also, the IC50 in assay [1] (setting [3]) was > 5 µM.
`CC(=O)N1CCN(c2ccnc(-c3cnc4cnc(C(=O)O)cn34)n2)CC1` [IV-30, 3-(4-(4-Acetylpiperazin-1-yl)pyrimidin-2-yl)imidazo[1,2-a]pyrazine-6-carboxylic acid] returned a Ki at GCN2 kinase (setting [2]) of 0.1 to 1 µM. Also, in assay [1] (setting [3]), the IC50 is > 5 µM.
For `CS(=O)(=O)NCC1CCN(c2ccnc(-c3cnc4cnc(Br)cn34)n2)C1` (stereo not drawn) [IV-27, N-((1-(2-(6-Bromoimidazo[1,2-a]pyrazin-3-yl)pyrimidin-4-yl)pyrrolidin-3-yl)methyl)methanesulfonamide] the same measures were 0.01 to 0.1 µM and 0.5 to 5 µM.
Taken in the same sequence, the figures for `CC1C(C(N)=O)CCN1c1ccnc(-c2cnc3cnc(C(F)(F)F)cn23)n1` (single isomer, unassigned) [IV-614, 2-Methyl-1-(2-(6-(trifluoromethyl)imidazo[1,2-a]pyrazin-3-yl)pyrimidin-4-yl)pyrrolidine-3-carboxamide] were 0.1 to 1 µM and > 5 µM.
